Measurements reported in patent publication US9458102B2 (priority 2011, dated 2016).
Read-outs that look alike come from different tables or passages of the source.

Legend:
[1] = biological target: heteromeric rod CNG channels consisting of CNGA1 and CNGB1 subunits (Bos taurus, UniProt Q00194+Q28181); assay: biochemical; assay type: cell-based; settings: for Kd: 2 mM cGMP
Experimental: Currents were elicited by a voltage step protocol from 0 to −50 to +50 mV (See FIG. 1) in the presence of 2 mM cGMP or 2 mM cGMP and compound (5 μM). Time scale is shown in the lower left-hand corner of the panel and FIG. 1, and the zero current level is indicated by the dotted line.
The solid line indicates the fit of the equation for block at a single binding site.
Time scale is shown in the lower left-hand corner of the panel and FIG. 1, and the zero current level is indicated by the dotted line. […] Solid line indicates the fit of the equation for block at a single binding site.
The effectiveness of retinal rod CNG channel current block by the disclosed compounds was tested in Xenopus oocyte preparations. Excised, inside-out patches pulled from oocytes expressed heteromeric rod CNG channels consisting of CNGA1 and CNGB1 subunits. […] CNG channel currents were elicited by a voltage step protocol to −50 and +50 mV (FIG. 1). The apparent KD value at each membrane potential was estimated first by determining I+B and I−B at steady state, where I+B is the current in the presence of blocker and I−B is current in the absence of blocker, for different blocker concentrations ([B]).
Ovaries were surgically removed from adult Xenopus laevis females (Xenopus Express; Brooksville, Fla.) anesthetized with ice-cold 0.1% tricaine and 0.1% NaHCO3 solution. Oocytes were chemically released from ovarian follicles in Ca^2+-free Barth's solution (88 mM NaCl, 1 mM KCl, 2.4 mM NaHCO3, 0.82 mM MgSO4, 7.5 mM Tris, 2.5 mM sodium pyruvate, 100 U/mL penicillin, and 100 μg/mL streptomycin, pH 7.4) containing 0.1 U/mL Liberase Blendzymes (Roche, Indianapolis, Ind.). Stages IV and V oocytes were visually sorted and stored in ND-96 (96 mM NaCl, 2 mM KCl, 1.8 mM CaCl2, 1 mM MgCl2, 5 mM HEPES, 2.5 mM sodium pyruvate, 100 U/mL penicillin, and 100 μg/mL streptomycin, pH 7.4) at 16° C. Oocytes were co-injected the following day with 33 ng of CNGA1 and 67 ng of CNGB1 cRNA […] synthesized from linearized pGEM-HE expression vectors containing the channel subunit cDNA sequence (Strassmaier T & Karpen J, J Med Chem 50, 4186-4194, (2007), incorporated by reference herein) using T7 mMESSAGE mMACHINE® (Ambion, Austin, Tex.). Injected oocytes were incubated at 18° C. the first day and 16° C. for the remaining days.
(§1) Recordings from inside-out excised patches were made 3-7 days after oocyte injection on an Axopatch 1D® amplifier (Axon Instruments, Foster City, Calif.). Briefly, oocyte vitelline membranes were removed in solution containing 200 mM K aspartate, 20 mM KCl, 1 mM MgCl2, 10 mM EGTA, 10 mM HEPES, pH 7.4. Oocytes were placed in a recording chamber in a solution containing 130 mM NaCl, 2 mM HEPES, 0.02 mM EDTA, 1 mM EGTA, pH 7.6, and borosilicate glass electrodes (1-3 MΩ) were filled with identical solution. Macroscopic currents were filtered at 1 kHz and sampled at 2 kHz using pCLAMP 8.0® software (Axon Instruments). Channels were either fully activated with 2 mM or partially activated with 50 and 100 μM cGMP. […] Glass syringes and Teflon tubing were used to minimize the binding of compounds to surfaces; concentrations passing through the perfusion system were verified by absorbance.

[2] = biological target: T1, chymotrypsin (Bos taurus, UniProt P00766); assay: In vitro hydrolysis by chymotrypsin; assay type: in vitro ADME
T1 construct: purchased Worthington Biochemical Co
Experimental: All enzymatic assays were performed with 50 μM compound in 0.1M phosphate buffer, pH 7.4, at 37° C. with stirring, unless otherwise noted. Butyrylcholinesterase stock solutions from human serum (Sigma, St. Louis, Mo.) were prepared at 100 U/mL in 0.1 M phosphate buffer, pH 7.4, and stored at −20° C. until use. Hydrolysis was monitored on an 8452A diode array spectrophotometer (Hewlett-Packard). Product peak wavelength absorption was immediately monitored upon addition of compound. Absorbances for complete hydrolysis were determined when there were no further detectable changes. […] All hydrolysis assays were performed in triplicate, and final rate constants are expressed as the mean±SD of the three individually determined rate constants. […] Activity of chymotrypsin (bovine, Worthington Biochemical Co., 190 μg/mL) was verified with 90 μM 4-nitrophenyl acetate in 0.1 M HEPES solution, pH 6.5, at 37° C. with stirring. Hydrolysis product was monitored at 404 nm for 10 min. Activity of proteinase K (from Engyodontium album, Sigma, 165 μg/mL) was verified with 16.5 mg/mL bovine serum albumin in 0.1 M phosphate buffer, pH 7.4, at 37° C. Samples were taken at time point increments up to 2 hours when the reaction reached completion. Samples were analyzed with 12% SDS-PAGE, stained with 0.1% Coomassie Blue.

[3] = tested on: heteromeric rod CNG channels consisting of CNGA1 and CNGB1 subunits; assay: CNG channel block at subsaturating cGMP (state dependence of block); assay type: cell-based; settings: subsaturating cGMP (50 or 100 μM), +50 mV, normalized to KD at 2 mM cGMP
Description: KD values at saturating cGMP were corrected for ion accumulation. Solid lines indicate simulations for exclusive closed channel blockers, using KD/KDsat=(1−Fsat)/(1−FsatI/Imax), where Fsat is the estimated fraction of open heteromeric rod channels in saturating cGMP assuming Fsat=0.3 (a), 0.56 (b), or 0.78 (c). The dotted line is a simulation for a blocker with no preference for state, or KD/KDsat=1. The dashed line is a simulation for an exclusive open channel blocker, using KD/KDsat=(I/Imax)^−1.
The solid lines in FIG. 4 marked a, b, and c represent the expected relationship between KD and the fraction of closed channels for an exclusive closed channel blocker. Each of a, b, and c uses one estimate for the probability of closed heteromeric retinal rod channels at saturating cGMP. The simulations are described in the following references: Matthews G et al, J Physiol 403, 389-405 (1988); Taylor W R & Baylor D A, J Physiol 483 567-582 (1995); and Bucossi G et al, Biophys J 72, 1165-1181 (1997), all of which are incorporated by reference herein. The dotted line represents a simulation of a blocker with no preference as to conformational of the channel. The dashed line represents a simulation for an exclusive open channel blocker.
as §1, with “absorbance. Current traces were digitally filtered at 300 Hz (Gaussian) and averaged using Clampfit 8.2® software. Currents in the absence of cGMP were subtracted from all currents analyzed. KD values were determined and expressed as the mean±SD.” for “absorbance.”

[4] = biological target: T2, Butyrylcholinesterase purified from human blood serum (Homo sapiens, UniProt P06276); assay: In vitro hydrolysis by serum cholinesterase (butyrylcholinesterase); assay type: in vitro ADME; settings: 50 μM compound, 0.1M phosphate buffer pH 7.4, 37° C.; mean±SD of triplicate
T2 construct: Butyrylcholinesterase purified from human blood serum; purchased Sigma; host or cells: purified from human blood serum
Experimental: Compound 1 is rapidly hydrolyzed by butyrylcholinesterase in the bloodstream. Butyrylcholinesterase purified from human blood serum was used to test the resistance of the disclosed compounds to hydrolysis.
All enzymatic assays were performed with 50 μM compound in 0.1M phosphate buffer, pH 7.4, at 37° C. with stirring, unless otherwise noted. Butyrylcholinesterase stock solutions from human serum (Sigma, St. Louis, Mo.) were prepared at 100 U/mL in 0.1 M phosphate buffer, pH 7.4, and stored at −20° C. until use. Hydrolysis was monitored on an 8452A diode array spectrophotometer (Hewlett-Packard). Product peak wavelength absorption was immediately monitored upon addition of compound. Absorbances for complete hydrolysis were determined when there were no further detectable changes. […] All hydrolysis assays were performed in triplicate, and final rate constants are expressed as the mean±SD of the three individually determined rate constants. In some experiments with compound 1, samples were taken at the beginning and end of the assay to verify the hydrolysis product and the completion of the reaction by HPLC. These samples were compared to compounds 1 and 3 on a C18 column eluted with 0.1% TFA in water/acetonitrile. Activity of chymotrypsin (bovine, Worthington Biochemical Co., 190 μg/mL) was verified with 90 μM 4-nitrophenyl acetate in 0.1 M HEPES solution, pH 6.5, at 37° C. with stirring. Hydrolysis product was monitored at 404 nm for 10 min. Activity of proteinase K (from Engyodontium album, Sigma, 165 μg/mL) was verified with 16.5 mg/mL bovine serum albumin in 0.1 M phosphate buffer, pH 7.4, at 37° C. Samples were taken at time point increments up to 2 hours when the reaction reached completion. Samples were analyzed with 12% SDS-PAGE, stained with 0.1% Coomassie Blue.

[5] = Table 2 (butyl series), +50 mV, read-out: KD(+50)
[6] = Table 2 (butyl series), −50 mV, read-out: KD(−50)
[7] = octyl series table, +50 mV, read-out: KD(+50)
[8] = octyl series table, −50 mV, read-out: KD(−50)

Chain of heteromeric rod CNG channels consisting of CNGA1 and CNGB1 subunits (Bos taurus, UniProt Q00194+Q28181) (Q00194 whole entry): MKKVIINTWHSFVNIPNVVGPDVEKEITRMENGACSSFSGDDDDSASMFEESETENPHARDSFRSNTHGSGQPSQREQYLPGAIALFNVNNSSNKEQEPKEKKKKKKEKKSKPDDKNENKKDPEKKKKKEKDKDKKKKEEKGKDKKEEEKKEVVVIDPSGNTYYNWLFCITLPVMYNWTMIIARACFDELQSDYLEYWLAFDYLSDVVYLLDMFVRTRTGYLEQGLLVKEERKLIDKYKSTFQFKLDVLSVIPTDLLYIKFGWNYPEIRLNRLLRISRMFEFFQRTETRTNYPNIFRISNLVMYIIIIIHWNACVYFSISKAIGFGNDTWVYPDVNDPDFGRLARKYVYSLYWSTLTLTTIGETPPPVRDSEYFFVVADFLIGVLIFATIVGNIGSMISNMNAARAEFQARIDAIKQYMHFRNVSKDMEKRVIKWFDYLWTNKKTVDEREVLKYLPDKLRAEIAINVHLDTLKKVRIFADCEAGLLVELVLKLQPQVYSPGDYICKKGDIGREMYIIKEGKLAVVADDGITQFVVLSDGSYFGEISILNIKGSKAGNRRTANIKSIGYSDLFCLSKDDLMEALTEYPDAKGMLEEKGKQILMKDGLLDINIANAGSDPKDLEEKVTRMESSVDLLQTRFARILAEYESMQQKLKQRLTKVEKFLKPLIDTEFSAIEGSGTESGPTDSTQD
Chain of heteromeric rod CNG channels consisting of CNGA1 and CNGB1 subunits (Bos taurus, UniProt Q00194+Q28181) (Q28181 whole entry): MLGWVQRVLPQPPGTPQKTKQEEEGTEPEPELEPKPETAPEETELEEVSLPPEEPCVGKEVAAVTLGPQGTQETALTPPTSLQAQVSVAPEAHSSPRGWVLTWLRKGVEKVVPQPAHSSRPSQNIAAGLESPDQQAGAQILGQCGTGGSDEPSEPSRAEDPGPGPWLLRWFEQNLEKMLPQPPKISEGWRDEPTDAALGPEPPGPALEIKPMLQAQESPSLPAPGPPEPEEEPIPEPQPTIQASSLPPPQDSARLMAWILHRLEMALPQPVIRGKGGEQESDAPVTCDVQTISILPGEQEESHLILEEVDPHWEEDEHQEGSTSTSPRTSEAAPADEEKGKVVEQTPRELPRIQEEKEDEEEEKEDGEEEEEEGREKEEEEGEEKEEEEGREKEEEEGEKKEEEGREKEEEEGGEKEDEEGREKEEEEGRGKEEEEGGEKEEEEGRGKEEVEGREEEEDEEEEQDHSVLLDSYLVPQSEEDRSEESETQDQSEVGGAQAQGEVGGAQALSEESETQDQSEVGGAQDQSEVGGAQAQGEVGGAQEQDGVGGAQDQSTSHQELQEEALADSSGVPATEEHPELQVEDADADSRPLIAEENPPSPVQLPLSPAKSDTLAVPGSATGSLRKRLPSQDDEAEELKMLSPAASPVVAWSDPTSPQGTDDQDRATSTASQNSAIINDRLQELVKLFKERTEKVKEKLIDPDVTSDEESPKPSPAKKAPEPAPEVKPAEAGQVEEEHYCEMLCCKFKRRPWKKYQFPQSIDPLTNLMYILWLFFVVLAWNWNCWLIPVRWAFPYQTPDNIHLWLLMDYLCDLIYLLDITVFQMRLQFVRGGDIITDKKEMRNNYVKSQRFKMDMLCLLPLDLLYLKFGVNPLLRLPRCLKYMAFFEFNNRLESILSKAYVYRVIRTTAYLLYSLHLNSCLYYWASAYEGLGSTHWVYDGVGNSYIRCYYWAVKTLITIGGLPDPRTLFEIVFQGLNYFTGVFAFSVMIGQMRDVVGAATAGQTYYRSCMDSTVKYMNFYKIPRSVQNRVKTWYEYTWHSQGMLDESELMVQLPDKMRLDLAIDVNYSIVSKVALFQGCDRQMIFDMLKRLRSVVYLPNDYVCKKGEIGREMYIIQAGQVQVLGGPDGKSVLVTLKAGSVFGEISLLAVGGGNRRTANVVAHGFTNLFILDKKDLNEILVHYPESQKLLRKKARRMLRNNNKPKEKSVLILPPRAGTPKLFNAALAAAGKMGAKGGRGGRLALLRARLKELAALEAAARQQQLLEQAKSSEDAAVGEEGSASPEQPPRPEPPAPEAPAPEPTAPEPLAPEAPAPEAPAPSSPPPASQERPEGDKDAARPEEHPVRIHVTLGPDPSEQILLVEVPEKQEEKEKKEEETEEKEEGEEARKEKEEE
T2 sequence (P06276 29-602): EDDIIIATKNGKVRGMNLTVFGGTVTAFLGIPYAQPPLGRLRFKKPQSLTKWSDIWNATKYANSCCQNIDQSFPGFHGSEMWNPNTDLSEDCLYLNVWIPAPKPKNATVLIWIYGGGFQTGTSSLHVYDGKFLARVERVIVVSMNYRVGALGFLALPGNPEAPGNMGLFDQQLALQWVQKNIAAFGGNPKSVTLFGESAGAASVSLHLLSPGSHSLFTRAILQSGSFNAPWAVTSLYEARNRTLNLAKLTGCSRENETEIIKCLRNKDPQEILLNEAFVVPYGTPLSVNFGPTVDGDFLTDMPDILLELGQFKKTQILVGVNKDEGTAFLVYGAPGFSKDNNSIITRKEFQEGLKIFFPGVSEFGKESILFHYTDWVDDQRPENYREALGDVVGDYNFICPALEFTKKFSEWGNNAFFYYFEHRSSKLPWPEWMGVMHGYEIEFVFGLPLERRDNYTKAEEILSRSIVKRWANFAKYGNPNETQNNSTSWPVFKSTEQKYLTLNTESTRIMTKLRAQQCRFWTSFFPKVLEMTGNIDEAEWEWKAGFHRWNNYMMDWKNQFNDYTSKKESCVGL

Compound	Kd [1, 7] [nM]	Kd [1, 8] [nM]	also measured
COc1ccc([C@H]2Sc3ccccc3N(CCN(C)C)C(=O)[C@H]2OC(C)=O)cc1 (relative stereo) [l-cis-diltiazem, reference compound]	–	–	block of 2 mM cGMP-induced currents [1]: 74.2±5.8%
CC(=O)Oc1ccc([N+](=O)[O-])cc1 [4-nitrophenyl acetate, reference compound]	–	–	hydrolysis products with chymotrypsin [2]: detected
CCCCNc1ccc(C(=O)OCCN(C)C)cc1 [Compound 1, 2-(dimethylamino)ethyl 4-(butylamino)benzoate, reference compound]	–	–	state dependence of block (KD vs fraction of closed channels) [3]: better fit the results expected of a closed channel blocker; Hydrolysis rate [4]: 132 ± 10 nmol/min/mg
CCCCNc1ccc(C(=O)OCCN(C)C)cc1[N+](=O)[O-] [Compound 12a, 2-(dimethylamino)ethyl 4-(butylamino)-3-nitrobenzoate]	–	–	Kd [1, 5]: 5500 ± 3200 nM; Kd [1, 6]: 19600 ± 14400 nM
CCCCNc1ccc(C(=O)OCCN(C)C)cc1OC [Compound 12b, 2-(dimethylamino)ethyl 4-(butylamino)-3-methoxybenzoate]	–	–	Kd [1, 5]: 4300 ± 800 nM; Kd [1, 6]: 18300 ± 4400 nM
CCCCNc1ccc(C(=O)OCCN(C)C)cc1C [Compound 12c, 2-(dimethylamino)ethyl 4-(butylamino)-3-methylbenzoate]	–	–	Kd [1, 5]: 7800 ± 3100 nM; Kd [1, 6]: 28100 ± 13400 nM
CCCCNc1ccc(C(=O)OCCN(C)C)cc1Cl [Compound 12d, 2-(dimethylamino)ethyl 4-(butylamino)-3-chlorobenzoate]	–	–	improvement of affinity / blocking potency compared to compound 1 (tetracaine) [1]: 1.6 fold; Kd [1, 5]: 3000 ± 1000 nM; Kd [1, 6]: 12800 ± 4100 nM
CCCCCCCCNc1ccc(C(=O)OCCN(C)C)cc1[N+](=O)[O-] [Compound 14a, 2-(dimethylamino)ethyl 4-(octylamino)-3-nitrobenzoate]	8000 ± 5800	12600 ± 7300	–
CCCCCCCCNc1ccc(C(=O)OCCN(C)C)cc1OC [Compound 14b, 2-(dimethylamino)ethyl 4-(octylamino)-3-methoxybenzoate]	1250 ± 1230	3000 ± 3400	–
CCCCCCCCNc1ccc(C(=O)OCCN(C)C)cc1C [Compound 14c, 2-(dimethylamino)ethyl 4-(octylamino)-3-methylbenzoate]	500 ± 420	1410 ± 840	–
CCCCCCCCNc1ccc(C(=O)OCCN(C)C)cc1Cl [Compound 14d, 2-(dimethylamino)ethyl 4-(octylamino)-3-chlorobenzoate]	140 ± 40	380 ± 160	improvement of affinity / blocking potency compared to compound 5 [1]: approximately six-fold improvement
CCCCCCCCNc1ccc(C(=O)OCCN(C)C)cc1F [Compound 14e, 2-(dimethylamino)ethyl 4-(octylamino)-3-fluorobenzoate]	200 ± 100	750 ± 860	–
CCCCCCCCNc1ccc(C(=O)OCCN(C)C)cc1Br [Compound 14f, 2-(dimethylamino)ethyl 4-(octylamino)-3-bromobenzoate]	140 ± 30	240 ± 100	–
CCCCCCCCNc1ccc(C(=O)OCCN(C)C)c(Cl)c1 [Compound 14g, 2-(dimethylamino)ethyl 4-(octylamino)-2-chlorobenzoate]	100 ± 90	220 ± 130	–
